Paper PMC9216188, “Expanding the Biological Properties of Alkannins and Shikonins: Their Impact on Adipogenesis and Life Expectancy in Nematodes” (Frontiers in Pharmacology, 2022)
“Also recorded” adds a separate entry of the source. Where two headings read alike, the source gives them in different places.

How the values were obtained:
[1] = Cell viability of undifferentiated 3T3-L1 cells (CellTiter-Glo); assay type: cell-based, Mouse; conditions: mouse; 0.01, 0.1, and 1 μM, 24 h; read-out: cell viability (% of untreated cells)
Procedure: (§1) Mouse fibroblast 3T3-L1 preadipocytes were kindly donated by the Laboratory of Inorganic Chemistry, School of Chemical Engineering, Aristotle University of Thessaloniki (Thessaloniki, Greece) and cultured in 75 cm^2 cell culture flasks in high-glucose DMEM supplemented with 10% FBS, 100 units/mL penicillin and […] streptomycin at 37°C in 5% CO2 and standard humidity. Medium was changed three times per week, until cells reached confluence. Two days post-confluency (day 0), cells were induced to differentiate by treating them with a differentiation/induction medium containing DMEM supplemented with 0.5 mM IBMX, 1 μM DEX, […] of insulin, and 10% FBS. Three days later (day 3), the medium was replaced with DMEM containing 10% FBS and 1 μg/ml insulin for two more days, after which (day 5) the medium was changed to DMEM with 10% FBS. The medium was replaced every 2 days until cells were harvested on day 11 ([Tsave et al., 2018]).
(§2) Viability of undifferentiated 3T3-L1 cells upon treatment with various concentrations of the hydroxynaphthoquinones was assessed using CellTiter-Glo assay in opaque-walled 96-well plates. This method utilizes the luciferase reaction for quantifying adenosine triphosphate (ATP), which is an indicator of cellular metabolic activity. Through the luciferase reaction, luminescence is generated in proportion to the amount of available ATP. […] Briefly, cells were seeded in a 96-well plate at a density of 3.5 × 10^3 cells and a total volume of 100 μl per well. After 24 h incubation, cells were treated with different concentrations (10 nM–10 μΜ) of the hydroxynaphthoquinones for 24 and 48 h. After the respective incubation times, cells in each condition were treated with a volume of the reagent equal to the volume of cell culture medium present in each well. The luminescence was recorded with a Glomax 96 microplate luminometer (Promega Corporation, United States). Untreated cells served as control samples. Each assay was performed three times, with at least three replicates each.
(§3) All tested compounds were previously dissolved in DMSO. The final concentration of DMSO in each well was lower than 0.1%. To confirm that DMSO at that concentration was inert, a screening was performed at various concentrations (0.00002%–2%) and cell viability was assessed. Cell viability was expressed as the percentage of viability observed in each compound, compared to the untreated cells.

3T3-L1 pre-adipocytes [2] = assay: as above; assay type: cell-based, Mouse; conditions: for inhibition of cell viability: 4 μM; for IC50: Mus musculus, read-out: IC50 (cell viability)
Procedure: as §1, §2, §3

3T3-L1 pre-adipocytes [3] = assay: Differentiation of 3T3-L1 cells, lipid quantification by Oil Red O staining; assay type: cell-based, Mouse; conditions: for lipid accumulation / fold decrease in lipid accumulation / lipid accumulation (formed lipids): 1 μM, ORO stain, day 11; for lipid accumulation: absence of insulin; for fold decrease in lipid accumulation / lipid accumulation (formed lipids): in the presence of insulin
Procedure: as §1
(§4) 3T3-L1 pre-adipocytes were differentiated into mature adipocytes following the aforementioned differentiation protocol (vide infra). Briefly, pre-adipocytes were treated with either 10 ng/ml of insulin and/or hydroxynaphthoquinones (100 nM or 1 μΜ). The tested compounds were first dissolved in DMSO and subsequently in the culture medium, with the final concentration of DMSO not exceeding 0.1% v/v. The initial stock concentration was 50 mM. Cells treated with insulin were considered as positive control whereas untreated cells were included as vehicle control. On the 11th day of the differentiation process, cell differentiation was assessed and validated by oil red O staining, as described elsewhere ([Tsave et al., 2016]). Further validation of successful adipogenesis was also confirmed by the relative expression of closely related biomarkers PPAR-γ and adiponectin (ADIPOQ).
3T3-L1 preadipocytes were seeded in 24-well plates at a density of 3.5 × 10^4 cells per well and differentiated as described above. On the 11th day, cells were washed three times with sterile PBS, fixed with formaldehyde 3.7%–4.0% for 20 min and stained with Oil Red O (ORO) solution for 10 min. Next, cells were washed with double distilled water (ddH2O) and stained lipids were observed and imaged under an inverted microscope, as described elsewhere ([Tsave et al., 2016]). The analysis and quantification of lipid accumulation—based on the amount of ORO dye—was performed by using ImageJ software (National Institutes of Health, United States). In brief, the RGB images with the stained lipids were converted to 8-bit grayscale (Image → Type → 8-bit). Next, a manual threshold was set (Image → Adjust → Threshold) for each sample and the stained areas were measured (Analyze → Measure) ([Mehlem et al., 2013]).

PPAR-γ [4] = assay: RT-PCR relative mRNA expression of PPAR-γ in differentiated 3T3-L1 cells; assay type: cell-based, Mouse; conditions: day 11
Procedure: as §4
(§5) Total RNA was extracted from cells on the 11th day of the differentiation protocol, using TRItidy-G reagent. The concentration and purity (absorbance ratio 260/280) of the extracted RNA were measured with a NanoDrop™ 2000c spectrophotometer (Thermo Fisher Scientific, United States). Synthesis of cDNA was performed with the iScript cDNA synthesis kit according to manufacturer instructions. RT-PCR was run on Rotor Gene Q (Qiagen) using the iTaq Universal SYBR Green Supermix and appropriate reagents (Qiagen, United States).
(§6) Customized primers were used from Qiagen for adiponectin (Mm_Adipoq_1_SG, NM_009605, Q01048047), GAPDH (Mm Gapdh_3_SG, QT01658692) and mPPAR-γ forward 5′-GTCAGCGACTGGGACTTTTC-3′ and reverse 5′-CGAGGACATCCAAGACAACC-3’.

ADIPOQ [5] = assay: RT-PCR relative mRNA expression of ADIPOQ in differentiated 3T3-L1 cells; assay type: cell-based, Mouse; conditions: day 11
Procedure: as §4, §5, §6

C. elegans N2 wild-type = assay: C. elegans survival assay (nematocidal activity); assay type: in vivo, Caenorhabditis elegans; conditions: for % Survival after 10 days ±SD: N2 worms
Procedure: Caenorhabditis elegans wild-type var. Bristol N2, SS104 [glp-4 (bn2ts)] and Escherichia coli OP50 were provided by the Caenorhabditis Genetics Center (University of Minnesota, United States). Media and NGM agar plates have been prepared as described before ([Zwirchmayr et al., 2020]). OP50 were grown in LB medium for 8 h at 37°C, then harvested by centrifugation, washed twice with ddH2O and suspended in S-complete medium at 100 mg/ml. Worms were maintained on NGM agar plates inoculated with OP50. Synchronized cultures were prepared by egg-prep method ([Porta-de-la-Riva et al., 2012]) and experiments started at the […].
The survival assay was performed as described before: Briefly, a suspension of 5–18 synchronized L1 larvae (N2 wild-type) in S-complete medium were manually seeded into 96-well plates. OP50 at a concentration of 6 mg/ml was added immediately and worms were kept at 25°C. The following day, when all worms reached the L3 stage, the sterilizing-agent 5-Fluorodeoxyuridine (FUdR; 0.12 mM final; Sigma-Aldrich, F0503) was added to keep the population synchronized. The next day, samples were added in triplicate wells to the adult worm culture with DMSO as a carrier at a final concentration of 1%. The number of living worms in each well was counted on day 0, 3, 5, 7 and 10 of the treatment. The worms were oxygenized every 3 days and OP50 were added on day 5 of adulthood to prevent starvation. Results of three parallel experiments are presented as bar charts and are given as the mean survival rate of worms.

C. elegans = system: C. elegans; set-up: method as in Hunt et al., 2011; conditions: 100 to 500 μM, applied to solid agar medium ref Hunt et al., 2011; cited from earlier work
3T3-L1 pre-adipocytes [6] = system: 3T3-L1 pre-adipocytes; set-up: method as in Lee et al., 2010; Gwon et al., 2013; Ha et al., 2016; conditions: 0.5–2 μM ref Lee et al., 2010; Gwon et al., 2013; Ha et al., 2016; cited from earlier work
PPAR-γ [7] = system: PPAR-γ; set-up: method as in Lee et al., 2010; Gwon et al., 2013; conditions: 0.5–2 μM ref Lee et al., 2010; Gwon et al., 2013; cited from earlier work
ADIPOQ [8] = system: ADIPOQ; set-up: method as in Lee H.-Y. et al., 2009; conditions: 2 μM ref Lee H.-Y. et al., 2009; cited from earlier work
[9] = compound alone, absence of insulin

Compound	IC50 (3T3-L1 pre-adipocytes [2]; 3T3-L1 cells, 24 h) [nM]	lipid accumulation (3T3-L1 pre-adipocytes [3]) [%]	PPAR-γ mRNA expression, fold increase (PPAR-γ [4]; compound together with insulin) [fold]	ADIPOQ mRNA expression, fold increase (ADIPOQ [5]; [9])	ADIPOQ mRNA expression, fold increase (ADIPOQ [5]; compound together with insulin)	lipid accumulation (formed lipids) (3T3-L1 pre-adipocytes [3])	also measured
CC(C)=CC[C@H](O)C1=CC(=O)c2c(O)ccc(O)c2C1=O [A, Alkannin]	< 3000	1.56	0.20	strongest inhibition	not showing any increase at all	–	viability [1]: > 146%; inhibition of cell viability (3T3-L1 pre-adipocytes [2]; 24 h): more than 90%; fold decrease in lipid accumulation (3T3-L1 pre-adipocytes [3]): 37 fold; inhibition of the formation of lipids (3T3-L1 pre-adipocytes [3]; in the presence of insulin (Figure 4)): ~100%
CC(=O)O[C@H](CC=C(C)C)C1=CC(=O)c2c(O)ccc(O)c2C1=O [ACS, Acetyl-shikonin]	–	–	–	–	–	–	concentrations showing reduced cell viability (3T3-L1 pre-adipocytes [2]; 24 h): > 4 µM
CC(C)=CC[C@@H](OC(=O)C=C(C)C)C1=CC(=O)c2c(O)ccc(O)c2C1=O [DMAS, β,β-Dimethyl-acryl-shikonin]	–	15.65	4.71	3.03 fold	3.24 fold	9.24%	concentrations showing reduced cell viability (3T3-L1 pre-adipocytes [2]; mouse, 24 h): > 4 µM; PPAR-γ mRNA expression, fold increase (PPAR-γ [4]; [9]): 8.37 fold; % Survival after 10 days ±SD (C. elegans N2 wild-type; 15 μg/ml): 73.87 ± 1.61 %; % Survival after 10 days ±SD (C. elegans N2 wild-type; 60 μg/ml): 62.22 ± 17.36 %
CC(C)=CCCC1=CC(=O)c2c(O)ccc(O)c2C1=O [DS, Deoxy-shikonin]	–	1.78	5.08	strongest inhibition; also recorded: complete impediment of ADIPOQ expression	4.85 fold	exceeded 10%	concentrations showing reduced cell viability (3T3-L1 pre-adipocytes [2]; 24 h): > 4 µM
CC(C)=CC[C@@H](OC(=O)CC(C)C)C1=CC(=O)c2c(O)ccc(O)c2C1=O [IVS, Isovaleryl-shikonin]	8660	–	–	–	–	–	concentrations showing reduced cell viability (3T3-L1 pre-adipocytes [2]; mouse, 24 h): > 4 µM
O=C1C=CC(=O)c2c(O)ccc(O)c21 [NAPH, Naphthazarin]	–	5.74	5.2	1.79 fold	2.13 fold	exceeded 10%	IC50 (3T3-L1 pre-adipocytes [2]; 3T3-L1, 24 h): < 3000 nM; % Survival after 10 days ±SD (C. elegans N2 wild-type; 15 μg/ml): 0.00 ± 0.00 %; worms surviving the first 3 days of treatment (C. elegans N2 wild-type; 15 μg/ml, day 3): 50%; % Survival after 10 days ±SD (C. elegans N2 wild-type; 60 μg/ml): 0.00 ± 0.00 %; nematodes dead at the third day of treatment (C. elegans N2 wild-type; 60 μg/ml, day 3): ~100%; effect on lifespan of C. elegans (C. elegans): extend the lifespan
CC(C)=CC[C@@H](O)C1=CC(=O)c2c(O)ccc(O)c2C1=O [S, Shikonin]	< 3000	2.58	1.27	2.4 fold	< 1 fold	–	viability [1]: > 146%; inhibition of cell viability (3T3-L1 pre-adipocytes [2]; 24 h): more than 90%; fold decrease in lipid accumulation (3T3-L1 pre-adipocytes [3]): 22 fold; effect on adipogenesis (3T3-L1 pre-adipocytes [6]): inhibit adipogenesis; effect on expression of PPAR-γ (PPAR-γ [7]): significantly inhibited; effect on ADIPOQ expression (ADIPOQ [8]): strongly inhibit
CC(C)=CC[C@@H](OC(=O)CC(C)(C)O)C1=CC(=O)c2c(O)ccc(O)c2C1=O [β-hydroxy-isovaleryl-shikonin, reference compound]	–	–	–	–	–	–	effect on adipogenesis (3T3-L1 pre-adipocytes [6]): inhibit adipogenesis
insulin: human recombinant insulin, positive control of differentiation [reference compound]	–	–	–	–	–	–	PPAR-γ mRNA expression, fold increase (PPAR-γ [4]; positive control sample (insulin group)): 10.78 fold; ADIPOQ mRNA expression, fold increase (ADIPOQ [5]; positive control sample (insulin)): 8.67 fold
